Experimental data: the NIST ThermoML archive (doi:10.1021/acs.jced.5b00288)
Where “and” joins values, the source holds several entries; their conditions need not be identical. Equal entries are not always repeated.

Assay: excess molar enthalpy (molar enthalpy of mixing); xn = mol fraction of the nth substance listed
Settings: 1060 K, 101 kPa, Liquid, Calvet calorimetry

[I][La]([I])[I] [lanthanum triiodide] + [I-].[K+]
Settings | excess molar enthalpy
x1 = 0.048 | -0.464 kcal/mol
x1 = 0.1 | -0.973 kcal/mol
x1 = 0.152 | -1.53 kcal/mol
x1 = 0.199 | -1.64 kcal/mol and -1.93 kcal/mol
x1 = 0.246 | -2.13 kcal/mol
x1 = 0.25 | -1.76 kcal/mol
x1 = 0.304 | -1.79 kcal/mol
x1 = 0.348 | -1.89 kcal/mol
x1 = 0.354 | -2.3 kcal/mol
x1 = 0.398 | -1.93 kcal/mol

[I][La]([I])[I] [lanthanum triiodide] + [I-].[Na+]
Settings | excess molar enthalpy [kcal/mol]
x1 = 0.0482 | -0.189
x1 = 0.0991 | -0.415
x1 = 0.1503 | -0.462
x1 = 0.2 | -0.678
x1 = 0.2477 | -0.549
x1 = 0.296 | -0.821
x1 = 0.3412 | -0.655
x1 = 0.3968 | -0.69
x1 = 0.3984 | -0.763
x1 = 0.4454 | -0.683
x1 = 0.4931 | -0.497
x1 = 0.4966 | -0.576
x1 = 0.5392 | -0.605
